The values below are quoted from earlier work in patent publication US9289495B2, “Systems and methods for treatment of allergies and other indications” (Strategic Science & Technologies, LLC, priority 2011, dated 2016).

As for `CN(C)CCOC(C)(c1ccccc1)c1ccccn1` (stereo not shown) [doxylamine], the pKa is on record as 8.7-9.2.
